Measurements taken from PubChem BioAssay (NCI).
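Briefly, cells in 96-well plates were exposed to five compound concentrations for 48 h, and endpoints were estimated by linear interpolation. The concentration for full growth arrest is given as TGI.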

Assays:
Assay in all cases: NCI tumour cell line growth inhibition, 48 h
BT-549 breast = tested on: BT-549 breast
IGROV1 ovarian = tested on: IGROV1 ovarian
UACC-62 melanoma = tested on: UACC-62 melanoma
MCF7 breast = tested on: MCF7 breast
NCI-H460 lung = tested on: NCI-H460 lung
KM12 colon = tested on: KM12 colon
HT29 colon = tested on: HT29 colon
786-0 renal = tested on: 786-0 renal
CCRF-CEM leukemia = tested on: CCRF-CEM leukemia
DU-145 prostate = tested on: DU-145 prostate
NCI-H522 lung = tested on: NCI-H522 lung
HCT-116 colon = tested on: HCT-116 colon
OVCAR-3 ovarian = tested on: OVCAR-3 ovarian
MDA-MB-435 = tested on: MDA-MB-435
OVCAR-8 ovarian = tested on: OVCAR-8 ovarian
UO-31 renal = tested on: UO-31 renal
SK-MEL-5 melanoma = tested on: SK-MEL-5 melanoma
TK-10 renal = tested on: TK-10 renal
MOLT-4 leukemia = tested on: MOLT-4 leukemia
OVCAR-5 ovarian = tested on: OVCAR-5 ovarian
HS 578T breast = tested on: HS 578T breast
LOX IMVI melanoma = tested on: LOX IMVI melanoma
A498 renal = tested on: A498 renal
HOP-62 NSCLC = tested on: HOP-62 NSCLC
A549 NSCLC = tested on: A549 NSCLC
SF-268 CNS = tested on: SF-268 CNS
MALME-3M melanoma = tested on: MALME-3M melanoma
UACC-257 melanoma = tested on: UACC-257 melanoma
PC-3 prostate = tested on: PC-3 prostate
EKVX NSCLC = tested on: EKVX NSCLC
COLO 205 colon = tested on: COLO 205 colon
MDA-N = tested on: MDA-N
SW-620 colon = tested on: SW-620 colon
HCC-2998 colon = tested on: HCC-2998 colon
NCI-H23 lung = tested on: NCI-H23 lung
CAKI-1 renal = tested on: CAKI-1 renal
SF-539 CNS = tested on: SF-539 CNS
SNB-19 CNS = tested on: SNB-19 CNS
NCI/ADR-RES ovarian = tested on: NCI/ADR-RES ovarian
NCI-H226 lung = tested on: NCI-H226 lung
SNB-75 CNS = tested on: SNB-75 CNS
ACHN renal = tested on: ACHN renal
SK-MEL-28 melanoma = tested on: SK-MEL-28 melanoma
SK-OV-3 ovarian = tested on: SK-OV-3 ovarian
K-562 leukemia = tested on: K-562 leukemia
MDA-MB-231 breast = tested on: MDA-MB-231 breast
RXF 393 renal = tested on: RXF 393 renal
M14 melanoma = tested on: M14 melanoma
HOP-92 NSCLC = tested on: HOP-92 NSCLC
RPMI-8226 leukemia = tested on: RPMI-8226 leukemia
SN12C renal = tested on: SN12C renal
U251 CNS = tested on: U251 CNS
SK-MEL-2 melanoma = tested on: SK-MEL-2 melanoma
SF-295 CNS = tested on: SF-295 CNS
OVCAR-4 ovarian = tested on: OVCAR-4 ovarian
HL-60(TB) leukemia = tested on: HL-60(TB) leukemia
T-47D breast = tested on: T-47D breast
HCT-15 colon = tested on: HCT-15 colon
SR leukemia = tested on: SR leukemia

O=C(Nc1ccccc1)c1cc(S(=O)(=O)Nc2nc3ncccc3[nH]2)c(SSc2cc(Cl)c(C(=O)Nc3ccccc3)cc2S(=O)(=O)Nc2nc3ncccc3[nH]2)cc1Cl
TGI (BT-549 breast): > 100 µM
TGI (IGROV1 ovarian): > 100 µM
TGI (UACC-62 melanoma): > 100 µM
TGI (MCF7 breast): > 100 µM
TGI (NCI-H460 lung): > 100 µM
TGI (KM12 colon): > 100 µM
TGI (HT29 colon): > 100 µM
TGI (786-0 renal): > 100 µM
TGI (CCRF-CEM leukemia): > 100 µM
TGI (DU-145 prostate): > 100 µM
TGI (NCI-H522 lung): > 100 µM
TGI (HCT-116 colon): > 100 µM
TGI (OVCAR-3 ovarian): > 100 µM
TGI (MDA-MB-435): > 100 µM
TGI (OVCAR-8 ovarian): > 100 µM
TGI (UO-31 renal): > 100 µM
TGI (SK-MEL-5 melanoma): > 100 µM
TGI (TK-10 renal): > 100 µM
TGI (MOLT-4 leukemia): > 100 µM
TGI (OVCAR-5 ovarian): > 100 µM
TGI (HS 578T breast): > 100 µM
TGI (LOX IMVI melanoma): > 100 µM
TGI (A498 renal): > 100 µM
TGI (HOP-62 NSCLC): > 100 µM
TGI (A549 NSCLC): > 100 µM
TGI (SF-268 CNS): > 100 µM
TGI (MALME-3M melanoma): > 100 µM
TGI (UACC-257 melanoma): > 100 µM
TGI (PC-3 prostate): > 100 µM
TGI (EKVX NSCLC): > 100 µM
TGI (COLO 205 colon): > 100 µM
TGI (MDA-N): > 100 µM
TGI (SW-620 colon): > 100 µM
TGI (HCC-2998 colon): > 100 µM
TGI (NCI-H23 lung): > 100 µM
TGI (CAKI-1 renal): > 100 µM
TGI (SF-539 CNS): > 100 µM
TGI (SNB-19 CNS): > 100 µM
TGI (NCI/ADR-RES ovarian): > 100 µM
TGI (NCI-H226 lung): > 100 µM
TGI (SNB-75 CNS): > 100 µM
TGI (ACHN renal): > 100 µM
TGI (SK-MEL-28 melanoma): > 100 µM
TGI (SK-OV-3 ovarian): > 100 µM
TGI (K-562 leukemia): > 100 µM
TGI (MDA-MB-231 breast): > 100 µM
TGI (RXF 393 renal): > 100 µM
TGI (M14 melanoma): > 100 µM
TGI (HOP-92 NSCLC): > 100 µM
TGI (RPMI-8226 leukemia): > 100 µM
TGI (SN12C renal): > 100 µM
TGI (U251 CNS): > 100 µM
TGI (SK-MEL-2 melanoma): > 100 µM
TGI (SF-295 CNS): > 100 µM
TGI (OVCAR-4 ovarian): > 100 µM
TGI (HL-60(TB) leukemia): > 100 µM
TGI (T-47D breast): > 100 µM
TGI (HCT-15 colon): > 100 µM

O=C(/C=C(\N=P(c1ccccc1)(c1ccccc1)c1ccccc1)C(F)(F)C(F)(F)C(F)(F)C(F)(F)C(F)(F)C(F)(F)C(F)(F)F)c1ccccc1
TGI (BT-549 breast): > 100 µM
TGI (IGROV1 ovarian): > 100 µM
TGI (UACC-62 melanoma): > 100 µM
TGI (MCF7 breast): > 100 µM
TGI (NCI-H460 lung): > 100 µM
TGI (KM12 colon): > 100 µM
TGI (HT29 colon): > 100 µM
TGI (786-0 renal): > 100 µM
TGI (CCRF-CEM leukemia): > 100 µM
TGI (DU-145 prostate): > 100 µM
TGI (HCT-116 colon): > 100 µM
TGI (OVCAR-3 ovarian): > 100 µM
TGI (MDA-MB-435): > 100 µM
TGI (UO-31 renal): > 100 µM
TGI (SK-MEL-5 melanoma): > 100 µM
TGI (TK-10 renal): > 100 µM
TGI (MOLT-4 leukemia): > 100 µM
TGI (OVCAR-5 ovarian): > 100 µM
TGI (HS 578T breast): > 100 µM
TGI (LOX IMVI melanoma): > 100 µM
TGI (HOP-62 NSCLC): > 100 µM
TGI (A549 NSCLC): > 100 µM
TGI (SF-268 CNS): > 100 µM
TGI (MALME-3M melanoma): > 100 µM
TGI (UACC-257 melanoma): > 100 µM
TGI (PC-3 prostate): > 100 µM
TGI (COLO 205 colon): > 100 µM
TGI (MDA-N): > 100 µM
TGI (SW-620 colon): > 100 µM
TGI (HCC-2998 colon): > 100 µM
TGI (NCI-H23 lung): > 100 µM
TGI (CAKI-1 renal): > 100 µM
TGI (SF-539 CNS): > 100 µM
TGI (SNB-19 CNS): > 100 µM
TGI (NCI/ADR-RES ovarian): > 100 µM
TGI (SR leukemia): > 100 µM
TGI (SNB-75 CNS): > 100 µM
TGI (ACHN renal): > 100 µM
TGI (SK-MEL-28 melanoma): > 100 µM
TGI (SK-OV-3 ovarian): > 100 µM
TGI (K-562 leukemia): > 100 µM
TGI (RXF 393 renal): > 100 µM
TGI (M14 melanoma): > 100 µM
TGI (HOP-92 NSCLC): > 100 µM
TGI (RPMI-8226 leukemia): > 100 µM
TGI (SN12C renal): > 100 µM
TGI (U251 CNS): > 100 µM
TGI (SK-MEL-2 melanoma): > 100 µM
TGI (SF-295 CNS): > 100 µM
TGI (OVCAR-4 ovarian): > 100 µM
TGI (HL-60(TB) leukemia): > 100 µM
TGI (T-47D breast): > 100 µM
TGI (HCT-15 colon): > 100 µM

CCOC(=O)c1nc2ccccc2nc1Nc1ccc(Cl)c(Cl)c1
TGI (BT-549 breast): 49.5 µM
TGI (IGROV1 ovarian): > 100 µM
TGI (UACC-62 melanoma): 83.2 µM
TGI (MCF7 breast): > 100 µM
TGI (NCI-H460 lung): > 100 µM
TGI (KM12 colon): > 100 µM
TGI (HT29 colon): > 100 µM
TGI (786-0 renal): > 100 µM
TGI (DU-145 prostate): > 100 µM
TGI (NCI-H522 lung): > 100 µM
TGI (HCT-116 colon): > 100 µM
TGI (OVCAR-3 ovarian): > 100 µM
TGI (MDA-MB-435): > 100 µM
TGI (OVCAR-8 ovarian): > 100 µM
TGI (UO-31 renal): > 100 µM
TGI (SK-MEL-5 melanoma): 65.5 µM
TGI (TK-10 renal): > 100 µM
TGI (MOLT-4 leukemia): > 100 µM
TGI (OVCAR-5 ovarian): > 100 µM
TGI (HS 578T breast): > 100 µM
TGI (HOP-62 NSCLC): 63 µM
TGI (A549 NSCLC): > 100 µM
TGI (SF-268 CNS): > 100 µM
TGI (MALME-3M melanoma): 93.9 µM
TGI (EKVX NSCLC): > 100 µM
TGI (COLO 205 colon): > 100 µM
TGI (MDA-N): > 100 µM
TGI (HCC-2998 colon): > 100 µM
TGI (NCI-H23 lung): > 100 µM
TGI (CAKI-1 renal): 70.9 µM
TGI (SF-539 CNS): > 100 µM
TGI (SNB-19 CNS): > 100 µM
TGI (NCI/ADR-RES ovarian): > 100 µM
TGI (SR leukemia): > 100 µM
TGI (SNB-75 CNS): 68.4 µM
TGI (ACHN renal): > 100 µM
TGI (SK-MEL-28 melanoma): > 100 µM
TGI (SK-OV-3 ovarian): 47.1 µM
TGI (K-562 leukemia): > 100 µM
TGI (MDA-MB-231 breast): > 100 µM
TGI (M14 melanoma): > 100 µM
TGI (HOP-92 NSCLC): 44.5 µM
TGI (RPMI-8226 leukemia): > 100 µM
TGI (SN12C renal): > 100 µM
TGI (U251 CNS): > 100 µM
TGI (SK-MEL-2 melanoma): > 100 µM
TGI (OVCAR-4 ovarian): > 100 µM
TGI (HL-60(TB) leukemia): > 100 µM
TGI (T-47D breast): > 100 µM
TGI (HCT-15 colon): > 100 µM
